Activity calls are given as the source filed them. No cut-off for these calls is given here.
How the values were obtained:
[1] = AUClast in male ICR-CD1 mouse liver at 40 mg/kg, po; format: ADME, organism-based
Plasmodium cynomolgi [2] = test: (§1) Antiplasmodial activity against hypnozoite Plasmodium cynomolgi B strain infected in Macaca mulatta hepatocytes incubated with sporozoite containing salivary gland homogenate obtained from dissected Anopheles dirus mosquitoes (infected with Plasmodium cynomolgi B strain) treatment started on day 4 post infection and continued daily for 4 days into fresh changed media until day 8 assessed as Liver stage (LS) activity by measuring prophylactic mode by immunofluorescent staining analysis; format: functional, organism-based; settings: Hepatocyte
Plasmodium cynomolgi [3] = test: as §1, with “radical cure” for “prophylactic”; format: functional, organism-based; settings: Hepatocyte
HepG2 = test: Cytotoxicity against human HepG2 cells assessed as cell viability measured after 48 hrs by MTT assay; format: functional, cell-based; settings: HepG2, 48 h
Hepatocyte = test: Cytotoxicity against Macaca mulatta hepatocytes assessed as cell viability measured after 48 hrs by MTT assay; format: toxicity, cell-based; settings: rhesus monkey, 48 h
Plasmodium cynomolgi [4] = test: as §1, with “schizont” for “hypnozoite”, “radical cure” for “prophylactic”; format: functional, organism-based; settings: Hepatocyte
[5] = AUClast in male ICR-CD1 mouse plasma at 40 mg/kg, po; format: ADME, organism-based
[6] = MRTlast in male ICR-CD1 mouse liver at 40 mg/kg, po; format: ADME, organism-based
[7] = as §1, with “Selectivity index, ratio of CC50 for Macaca mulatta hepatocytes to IC50 for antiplasmodial” for “Antiplasmodial”; format: toxicity, cell-based; settings: rhesus monkey, read-out: Selectivity Index
Plasmodium yoelii [8] = test: In vivo antiplasmodial activity against asexual blood-stage (ABS) Plasmodium yoelii MRA-428 infected in 4-day suppression CF1 mouse model assessed as reduction in parasitemia by measuring cured mouse at 100 mg/kg, po single dose treated 24 hrs post infection; format: functional, organism-based
[9] = as §1, with “Selectivity index, ratio of CC50 for Macaca mulatta hepatocytes to IC50 for antiplasmodial” for “Antiplasmodial”, “schizont” for “hypnozoite”; format: toxicity, cell-based; settings: rhesus monkey, read-out: Selectivity Index
[10] = Mutagenicity in Salmonella typhimurium TA98 assessed as background reversion rate up to 10 uM without S-9 metabolic activation by AMES test; format: toxicity; settings: salmonella enterica subsp. enterica serovar typhimurium
[11] = Cmax in male ICR-CD1 mouse liver at 40 mg/kg, po; format: ADME, organism-based
[12] = MRTlast in male ICR-CD1 mouse plasma at 40 mg/kg, po; format: ADME, organism-based
Plasmodium falciparum [13] = test: Antiplasmodial activity against asexual blood-stage (ABS) MDR Plasmodium falciparum Dd2 infected in human erythrocytes assessed as reduction in fluorescence measured after 72 hrs by Malaria SYBR Green I-based Fluorescence (MSF) assay; format: functional, organism-based; settings: Dd2, Erythrocyte
[14] = Mutagenicity in Salmonella typhimurium TA100 assessed as background reversion rate up to 10 uM with S-9 metabolic activation by AMES test; format: toxicity; settings: salmonella enterica subsp. enterica serovar typhimurium
[15] = Toxicity in CF1 mouse infected with asexual blood-stage (ABS) Plasmodium yoelii MRA-428 assessed as ruffled hair at 0.3 to 30 mg/kg, po treated 24 hrs post infection measured after 4 days; format: organism-based; settings: in vivo, 96 h, dose 0.3-30 mg/kg, time 4 day
Plasmodium falciparum [16] = test: Antiplasmodial activity against asexual blood-stage (ABS) ATV-resistant clinical isolate Plasmodium falciparum Tm90-C2B infected in human erythrocytes assessed as reduction in fluorescence measured after 72 hrs by Malaria SYBR Green I-based Fluorescence (MSF) assay; format: functional, organism-based; settings: Erythrocyte
[17] = Toxicity in CF1 mouse infected with asexual blood-stage (ABS) Plasmodium yoelii MRA-428 assessed as lethargy at 0.3 to 30 mg/kg, po treated 24 hrs post infection measured after 4 days; format: organism-based; settings: in vivo, 96 h, dose 0.3-30 mg/kg, time 4 day
[18] = Mutagenicity in Salmonella typhimurium TA100 assessed as background reversion rate up to 10 uM without S-9 metabolic activation by AMES test; format: toxicity; settings: salmonella enterica subsp. enterica serovar typhimurium
[19] = Tmax in male ICR-CD1 mouse liver at 40 mg/kg, po; format: ADME, organism-based
[20] = as §1, with “Selectivity index, ratio of CC50 for Macaca mulatta hepatocytes to IC50 for antiplasmodial” for “Antiplasmodial”, “schizont” for “hypnozoite”, “radical cure” for “prophylactic”; format: toxicity, cell-based; settings: rhesus monkey, read-out: Selectivity Index
Plasmodium falciparum [21] = test: Antiplasmodial activity against asexual blood-stage (ABS) CQ-sensitive Plasmodium falciparum D6 infected in human erythrocytes assessed as reduction in fluorescence measured after 72 hrs by Malaria SYBR Green I-based Fluorescence (MSF) assay; format: functional, organism-based; settings: D6, Erythrocyte
[22] = Toxicity in CF1 mouse infected with asexual blood-stage (ABS) Plasmodium yoelii MRA-428 assessed as hunching at 0.3 to 30 mg/kg, po treated 24 hrs post infection measured after 4 days; format: organism-based; settings: in vivo, 96 h, dose 0.3-30 mg/kg, time 4 day
[23] = Tmax in male ICR-CD1 mouse plasma at 40 mg/kg, po; format: ADME, organism-based
Plasmodium berghei = test: In vivo antiplasmodial activity against luciferase expressing liver stage Plasmodium berghei ANKA MRA-868 sporozoites infected in Albino C57BL/6 mouse model assessed as protection at 40 mg/kg, po daily measured 24 to 72 hrs by real-time In Vivo Imaging System (IVIS); format: functional; settings: time 24-72 hrs
[24] = AUC(0 to infinity) in male ICR-CD1 mouse liver at 40 mg/kg, po; format: ADME, organism-based
[25] = Half life in male ICR-CD1 mouse liver at 40 mg/kg, po; format: ADME, organism-based
[26] = mouse, microsomes, 1 h
Plasmodium yoelii [27] = test: In vivo antiplasmodial activity against asexual blood-stage (ABS) Plasmodium yoelii MRA-428 infected in 4-day suppression CF1 mouse model assessed as reduction in parasitemia by measuring cured mouse at 60 mg/kg, po single dose treated 24 hrs post infection; format: functional, organism-based
Plasmodium cynomolgi [28] = test: as §1, with “schizont” for “hypnozoite”; format: functional, organism-based; settings: Hepatocyte
[29] = Mutagenicity in Salmonella typhimurium TA98 assessed as background reversion rate up to 10 uM with S-9 metabolic activation by AMES test; format: toxicity; settings: salmonella enterica subsp. enterica serovar typhimurium
[30] = Cmax in male ICR-CD1 mouse plasma at 40 mg/kg, po; format: ADME, organism-based
[31] = as §1, with “Selectivity index, ratio of CC50 for Macaca mulatta hepatocytes to IC50 for antiplasmodial” for “Antiplasmodial”, “radical cure” for “prophylactic”; format: toxicity, cell-based; settings: rhesus monkey, read-out: Selectivity Index
[32] = AUCextrap in male ICR-CD1 mouse liver at 40 mg/kg, po; format: ADME, organism-based
[33] = Apparent oral clearance in male ICR-CD1 mouse liver at 40 mg/kg, po; format: ADME, organism-based
[34] = Toxicity in CF1 mouse infected with asexual blood-stage (ABS) Plasmodium yoelii MRA-428 assessed as clinical toxicity at 0.3 to 30 mg/kg, po treated 24 hrs post infection measured after 4 days; format: organism-based; settings: in vivo, dose 0.3-30 mg/kg

Row | SMILES | AUC(0-t) [1] | IC50 (Plasmodium cynomolgi [2]) | IC50 (Plasmodium cynomolgi [3]) | IC50 (HepG2) | CC50 (Hepatocyte) | IC50 (Plasmodium cynomolgi [4]) | AUC(0-t) [5] | MRT last [6] | selectivity ratio at 96 h [7] | Activity (Plasmodium yoelii [8]) | selectivity ratio at 96 h [9] | Activity [10] | Cmax [11] | MRT last [12] | IC50 (Plasmodium falciparum [13]) | Activity [14] | Activity [15] | IC50 (Plasmodium falciparum [16]) | Activity [17] | Activity [18] | further results
1 | O=c1c2c([nH]c3cc(Oc4ccc(OC(F)(F)F)cc4)ccc13)CCCC2 | 32900 ng·h/mL | 340 nM | 550 nM | 99400 nM | 610 nM | 380 nM | 472 ng·h/mL | 5.16 h | 1.79 | Active | 4.69 | Non-toxic | 6080 ng/mL | 4.1 h | 0.253 nM | Non-toxic | Non-toxic | 0.295 nM | Non-toxic | Non-toxic | Tmax [19]: 4 h; selectivity ratio at 96 h [20]: 1.61; IC50 (Plasmodium falciparum [21]): 0.31 nM; Activity [22]: Non-toxic; Tmax [23]: 1 h; Activity (Plasmodium berghei): 100%; AUC(0-inf) [24]: 33000 ng·h/mL; half-life [25]: 2.84 h; CLH [26]: 117 µL/min/mg; Activity (Plasmodium yoelii [27]): Active; IC50 (Plasmodium cynomolgi [28]): 130 nM; Activity [29]: Non-toxic; Cmax [30]: 83 ng/mL; selectivity ratio at 96 h [31]: 1.11; AUC [32]: 0.12%; CL/F [33]: 0.542 mL/min/kg; Activity [34]: Non-toxic
2 | O=c1c2c([nH]c3cc(Oc4ccc(OC(F)(F)F)cc4)c(F)cc13)CCCC2 | 5470 ng·h/mL | 600 nM | 2080 nM | > 200000 nM | 3110 nM | 2410 nM | 167 ng·h/mL | 5.64 h | 5.18 | Active | 31.1 | Non-toxic | 654 ng/mL | 2.95 h | 0.268 nM | Non-toxic | Non-toxic | 0.384 nM | Non-toxic | Non-toxic | Tmax [19]: 0.5 h; selectivity ratio at 96 h [20]: 1.29; IC50 (Plasmodium falciparum [21]): 0.015 nM; Activity [22]: Non-toxic; Tmax [23]: 1 h; Activity (Plasmodium berghei): 100%; AUC(0-inf) [24]: 5510 ng·h/mL; half-life [25]: 4.3 h; CLH [26]: 74.9 µL/min/mg; Activity (Plasmodium yoelii [27]): Active; IC50 (Plasmodium cynomolgi [28]): 100 nM; Activity [29]: Non-toxic; Cmax [30]: 42.1 ng/mL; selectivity ratio at 96 h [31]: 1.49; AUC [32]: 0.603%; CL/F [33]: 3.58 mL/min/kg; Activity [34]: Non-toxic

Source: ChEMBL document CHEMBL6134844, “Development of Next-Generation Antimalarial Acridones with Radical Cure Potential” (J Med Chem, 2025)
